Data taken from patent publication US3975529A, “Diebenzo(B,E)thiepines” (Roussel-UCLAF, priority 1974, dated 1976).
Structures can show the parent of a compound that is named as a salt. Where two headings read alike, the source gives them in different places.

Experiments:
[1] = tested on: trembling and peripherical cholinergic manifestations provoked by tremorine; experiment: Antitremorine activity (ED50); assay type: in vivo; conditions: mice; for ED50: Mus musculus, ip, i.p. aqueous solution, tremorine 20 mg/kg i.p. half an hour after
Procedure: The antagonism of the test compounds to the trembling and peripherical cholinergic manifestations provoked by tremorine [Everett et al, Science, Vol. 124 (1956), p. 79] was studied on mice.
The product of Example 1 in aqueous solution was intraperitoneally administered at doses of 0.5, 1,2 and 5 mg/kg to groups of 10 mice and the mice received an intraperitoneal injection of 20 mg/kg of tremorine half an hour after the test product. The reactions (trembling, salivation, lacrymation) of the animals were observed 10, 20, 30 and 60 minutes after the tremorine injection. At the height of the activity, the 50% efficacy dose (ED50) in which 50% of the animals were protected from the trembling and peripheral parasympathomimetic reactions of salivation and lacrymation normally provoked by tremorine injection were determined.

[2] = tested on: antinociceptive activity of oxotremorine; experiment: Antagonism of antinociceptive activity of oxotremorine, hot plate (Table III); assay type: in vivo, mice
Procedure: The antinociceptive activity of oxotremorine [Leslie, J. Pharm. Pharmae., Vol. 2 (1969), p. 248-50] was determined on mice using the hot plate method of Eddy et al [J. Pharmacol. Vol. 107 (1953), p. 385] in the presence and absence of the test product presumed to be antagonistic. The product of Example 1 was administered subcutaneously in aqueous solution at doses of 50 and 100 mg/kg to groups of 10 mice and the products of Examples 2 to 5 were subcutaneously administered in sesame oil solution at doses of 200 and 400 mg/kg to groups of 10 mice. The mice then received a single intraperitoneal injection of 0.5 mg/kg of oxotremorine either 4 hours, 1 day, 2, 3, 4 or 7 days after the test product administration. For each time considerated, the mice were placed on the hot plate one half hour after the oxotremorine administration and the time for the appearance of nociceptive refluxes consistituted by simultaneous licking of the front paws was noted. The maximum time of staying on the hot plate was fixed at 45 seconds and the percentage of animals with a reaction time (RT) less than 40 seconds in spite of oxotremorine administration was determined.

[3] = Acute toxicity study (LD50); parameters: species or system mice; conditions: mouse, in vivo, aqueous solution
Procedure: The acute toxicity of the products was determined intraperitoneally or subcutaneously on mice weighing about 20 g with the LD50 dose being calculated by the method of Litchfield et al [J. Pharmacol. exp. Therap., Vol. 96 (1949), p. 99-133]. The LD50 for the product of Example 1 in aqueous solution was about 100 mg/kg intraperitoneally after 2 days of observation and about 500 mg/kg subcutaneously after 5 days of observation.

[4] = tested on: trembling and peripherial cholinergic manifestations provoked by oxotremorine; experiment: Antioxotremorine activity: antagonism to the trembling and peripherial cholinergic manifestations (Table II); assay type: in vivo, mice
Procedure: The antagonism of the test products to the trembling and peripherial cholinergic manifestations provoked by oxotremorine [Cho et al, J. Biochem. Biophys. Res. Commun., Vol. 5, (196l) p. 276] was studied on mice. The product of Example 1 was administered subcutaneously in aqueous solution at doses of 50 and 100 mg/kg to groups of 10 mice and the products of Example 2 were subcutaneously administered in sesame oil solution at doses of 200 and 400 mg/kg to groups of 10 mice. Control animals received no vehicle. The mice then received a single intraperitoneal dose of 0.5 mg/kg of oxotremorine either 4 hours, 1 day, 2, 3, 4 or 7 days after the injection of the test product. The reaction of the animals as in Table I were recorded 5,10 and 15 minutes after the injection of oxotremorine and the percent of inhibition of the different reactions, at the height of the effect, after the oxotremorine injection was determined as a function of time.

[5] = 50 mg/kg s.c. aqueous solution, after 4 h
[6] = 50 mg/kg s.c. aqueous solution, after 1 d
[7] = 100 mg/kg s.c. aqueous solution, after 4 h
[8] = 100 mg/kg s.c. aqueous solution, after 1 d

Structure (SMILES): OCCN1C2CCC1CC(=C1c3ccccc3CSc3ccccc31)C2 (racemic) [Example 1, dl N-(β-hydroxyethyl)-11-(3'-nortropylidene)-6,11-dihydrodibenzo(b,e)thiepine hydrochloride]
- ED50 ([1]; read-out: ED50 for parasympathomimetic reactions (salivation and lacrymation)): 1 to 2 mg/kg
- ED50 ([1]; read-out: ED50 for trembling): 1 mg/kg
- anticholinergic activity (in words) ([1]; antitremorine test, i.p.): important anticholinergic activity
- % of animals with a RT less than 40 seconds [2, 5]: 100%
- % of animals with a RT less than 40 seconds [2, 6]: 10%
- % of animals with a RT less than 40 seconds [2, 7]: 100%
- % of animals with a RT less than 40 seconds [2, 8]: 20%
- antagonistic activity against antinociceptive activity of oxotremorine (in words) ([2]; s.c., mice, Table III): important antagonistic activity against antinociceptive activity of oxotremorine which is manifested for several hours
- LD50 at 48 h ([3]; ip, after 2 days of observation): ~100 mg/kg
- LD50 at 120 h ([3]; sc, after 5 days of observation): ~500 mg/kg
- % inhibition of reactions: L (lacrymation) [4, 5]: 100%
- % inhibition of reactions: S (salivation) [4, 5]: 100%
- % inhibition of reactions: T (trembling) [4, 5]: 100%
- % inhibition of reactions: L (lacrymation) [4, 6]: 0%
- % inhibition of reactions: S (salivation) [4, 6]: 0%
- % inhibition of reactions: T (trembling) [4, 6]: 0%
- % inhibition of reactions: L (lacrymation) [4, 7]: 100%
- % inhibition of reactions: S (salivation) [4, 7]: 100%
- % inhibition of reactions: T (trembling) [4, 7]: 100%
- % inhibition of reactions: L (lacrymation) [4, 8]: 0%
- % inhibition of reactions: S (salivation) [4, 8]: 0%
- % inhibition of reactions: T (trembling) [4, 8]: 0%
